# Test results published in patent US4937346A, “Phenyl-azacykloalkanes” (Carlsson; Per Arvid Emil, priority 1979, dated 1990).
# Key:
# DA autoreceptors = assay: Turning behavior in rats with acute unistriatal KCl lesion; format: in vivo, rat; design: key to Catalepsy: + present; - absent; conditions: for Apomorphine-induced turning: apomorphine 1.0 mg/kg s.c. 1 h after
# Description: 5. Turning behavior in rats with acute unistriatal lesion.
# In animals with an acute unilateral KCl-lesion (1μ1 25% KCl lesioned side, 1μ1 20% NaCl control side, administered through previously implanted "guide cannulaes") of the striatum, compensatory counterbalancing adjustments in the intact contralateral striatum are brought about and therefore no appreciable asymmetry in body posture or torsion is observed. Disturbances in the balance produces, depending on the point of attack, ipsi- or alternatively contralateral turning. In this model postsynaptically active DA agonists (e.g. apomorphine, high dosage) elicit ipsilateral turning and rotatory behavior whereas DA antagonists (e.g. haloperidol) cause contralateral turning. Consequently it could be expected that agents acting exclusively on DA autoreceptors would produce contralateral turning in the lesioned animals.
# [1] = system: postsynaptic DA receptors; assay: Emetic activity in dogs; format: in vivo; conditions: at least at 1 mg/kg i.m.
# Description: It was in fact lacking any measurable temperature effects.
# [2] = system: postsynaptic dopaminergic receptor; assay: Antagonism of apomorphine-induced locomotor stimulation; format: in vivo, rat
# Protocol: 3. Evidence for postsynaptic dopminergic receptor antagonist activity of (-)-3-PPP.
# The locomotor stimulating action of the dopamine receptor aqonist apomorphine is antagonized by (-)-3-PPP. […] Thus the postsynaptic receptor antagonist activity requires a larger dose than the presynaptic receptor agonist activity, which is evident after doses down to 0.25 mg/kg.
# Further, (-)-3-PPP and racemic 3-PPP have been compared regarding antagonism of apomorphine-induced locomotor stimulation. Either form of 3-PPP was injected subcutaneously in a dose of 8 mg/kg 20 min and apomorphine in a dose of 1 mg/kg subcutaneously 5 min before placing the rats in the Motron for 30 min. Shown are the counts per 30 min., means± s.e.m. and number of experiments (n).
# [3] = system: dopaminergic receptors (presynaptic and postsynaptic); conditions: racemic mixtures; cited from earlier work
# [4] = system: postsynaptic DA receptors; assay: Antagonism of the reserpine-induced "neuroleptic syndrome" in the rat; format: in vivo; conditions: s.c., different doses, not even at nearly lethal doses
# Description: 1. Antagonism of the reserpine-induced "neuroleptic syndrome" in the rat
# Depletion of the monoamine stores with reserpine brings about a "neuroleptic syndrome" characterized by hypomotility, catalepsy, muscle rigidity, hunch-backed posture as well as a number of other central and peripheral signs of monoamine depletion. This syndrome can be reversed by the administration of drugs that stimulate postsynaptic DA receptors directly or indirectly, e.g. apomorphine, L-Dopa.
# Rats (150-300 g) pretreated with reserpine (10 mg/kg i.p., 6 h before) were given compound 4 subcutaneously at different doses.
smiles,measurement,setting,value
"Br.CCCN1CCCC(c2cccc(O)c2)C1 (racemic) [Compound 4, N-n-propyl-3-(3-hydroxyphenyl)piperidine hydrobromide]",Catalepsy,DA autoreceptors; 1 mg/kg s.c.,-
same,Turning contralateral,"DA autoreceptors; 1 mg/kg s.c., 2 animals",2
same,Turning ipsilateral,"DA autoreceptors; 1 mg/kg s.c., 2 animals",0
same,Catalepsy,DA autoreceptors; 2 mg/kg s.c.,-
same,Duration of turning,DA autoreceptors; 2 mg/kg s.c.,> 2 h
same,Turning contralateral,"DA autoreceptors; 2 mg/kg s.c., 4 animals",4
same,Turning ipsilateral,"DA autoreceptors; 2 mg/kg s.c., 4 animals",0
same,Apomorphine-induced turning,DA autoreceptors; 2 mg/kg s.c.,Ipsi 4/4
same,Catalepsy,DA autoreceptors; 4 mg/kg s.c.,-
same,Turning contralateral,"DA autoreceptors; 4 mg/kg s.c., 2 animals",2
same,Turning ipsilateral,"DA autoreceptors; 4 mg/kg s.c., 2 animals",0
same,Catalepsy,DA autoreceptors; 8 mg/kg s.c.,-
same,Duration of turning,DA autoreceptors; 8 mg/kg s.c.,> 4 h
same,Turning contralateral,"DA autoreceptors; 8 mg/kg s.c., 4 animals",4
same,Turning ipsilateral,"DA autoreceptors; 8 mg/kg s.c., 4 animals",0
same,Apomorphine-induced turning,DA autoreceptors; 8 mg/kg s.c.,Ipsi 4/4
same,Catalepsy,DA autoreceptors; 32 mg/kg s.c.,+
same,Duration of turning,DA autoreceptors; 32 mg/kg s.c.,> 4 h
same,Turning contralateral,"DA autoreceptors; 32 mg/kg s.c., 8 animals",8
same,Turning ipsilateral,"DA autoreceptors; 32 mg/kg s.c., 8 animals",0
same,Apomorphine-induced turning,DA autoreceptors; 32 mg/kg s.c.,Ipsi 8/8
same,effect on apomorphine ipsilateral turning and rotatory response,"DA autoreceptors; apomorphine 1.0 mg/kg s.c., pretreatment with compound 4",not affected by pretreatment with compound 4
same,turning direction,"DA autoreceptors; s.c., each dose tested",made the animals turn to the side contralateral to the lesion
same,overall appearance,"DA autoreceptors; s.c., lesioned rats",indicative of a sedative action
same,emetic activity,[1],devoid of emetic activity in dogs
same,antagonism of apomorphine locomotor stimulation,[2]; 8 mg/kg s.c.,did not
same,"counts per 30 min., with apomorphine","[2]; 8 mg/kg s.c. + apomorphine 1 mg/kg s.c., means ± s.e.m., n=5",443 ± 26 counts per 30 min.
same,activation of classical postsynaptic dopaminergic receptors,[3],no concomitant activation of the classical postsynaptic dopaminergic receptors could be detected
same,antagonism of the reserpine-induced syndrome,[4],no antagonism of the reserpine-induced syndrome was observed
